# Assay results published in patent publication US10975119B2, “Selective cysteine protease inhibitors and uses thereof” (Genesis Technologies Limited, priority 2011, dated 2021).
# pIC50: −log10 of the molar value. Like-named read-outs stand apart in the source and are kept apart here.
# What was measured:
# Format in all cases: biochemical
# [1] = molecular target: T1, Caspase-1 (Homo sapiens, UniProt P29466); assay: Caspase-1 inhibitor screening assay (BioVision kit, YVAD-AFC); details: read-out: IC50 Casp1
# T1 construct: mixing the compounds with the respective active caspases; purchased BioVision K151-100
# T1 sequence (P29466 120-297 limits assumed): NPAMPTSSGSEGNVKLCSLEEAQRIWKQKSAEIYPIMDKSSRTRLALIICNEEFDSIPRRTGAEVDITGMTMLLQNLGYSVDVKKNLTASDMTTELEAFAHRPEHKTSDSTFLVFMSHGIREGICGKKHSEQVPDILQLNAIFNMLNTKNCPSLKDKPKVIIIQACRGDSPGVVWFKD
# T1 sequence (P29466 317-404 limits assumed): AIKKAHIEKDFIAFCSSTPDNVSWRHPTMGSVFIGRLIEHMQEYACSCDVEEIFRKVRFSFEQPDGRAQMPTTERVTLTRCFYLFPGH
# Protocol: (§1) The efficacy of an array of compounds as an inhibitor of the activity of Caspases 1 through 10 were assessed by using the respective Caspase Inhibitor Drug Screening Kits (Caspase-1 Catalog #: K151-100, Caspase-2 Catalog #: K152-100, Caspase-3 Catalog #: K153-100, Caspase-4 Catalog #: K154-100, Caspase-5 Catalog #: K155-100, Caspase-6 Catalog #: K156-100, Caspase-7 Catalog #: K157-100, Caspase-8 Catalog #: K158-100, Caspase-9 Catalog #: K159-100, Caspase-10 Catalog #: K160-100, BioVision) following the instructions of the manufacturer. […] Active caspases cleaved their respective synthetic substrates to release free AFC, which was then quantified by fluorometry.
# (§2) Briefly, the compounds were first tested at 2 concentrations (10 uM and 100 uM final) to determine if there is a hit. […] Each condition was tested in duplicates. […] For some samples, a smaller range of concentrations was tested depending on the % Inhibition results at 10 uM and 100 uM. Results were summarized in Tables 2, 3, and 4 herein after. Table 2 represents the IC50 values (uM) of the test compounds as inhibitors of the activity of the various caspases.
# (§3) (*) RFU (no inhibitor control)—RFU (compound at a specific concentration)
# (§4) RFU (no inhibitor control)
# [2] = molecular target: T2, Caspase-3 (Homo sapiens, UniProt P42574); assay: Caspase-3 inhibitor screening assay (BioVision kit, DEVD-AFC); details: read-out: IC50 Casp3
# T2 construct: mixing the compounds with the respective active caspases; purchased BioVision K153-100
# T2 sequence (P42574 29-175 limits assumed): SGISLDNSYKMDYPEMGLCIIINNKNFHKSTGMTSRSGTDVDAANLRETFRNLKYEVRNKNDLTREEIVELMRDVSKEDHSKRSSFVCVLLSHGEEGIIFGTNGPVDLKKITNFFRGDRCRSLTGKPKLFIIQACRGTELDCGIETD
# T2 sequence (P42574 176-277 limits assumed): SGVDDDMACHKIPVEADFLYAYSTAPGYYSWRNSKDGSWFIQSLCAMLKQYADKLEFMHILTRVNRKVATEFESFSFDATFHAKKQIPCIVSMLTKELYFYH
# Protocol: as §1, §2, §3, §4
# [3] = molecular target: T3, Caspase-4 (Homo sapiens, UniProt P49662); assay: Caspase-4 inhibitor screening assay (BioVision kit, LEVD-AFC); details: read-out: IC50 Casp4
# T3 construct: mixing the compounds with the respective active caspases; purchased BioVision K154-100
# T3 sequence (P49662 81-270 limits assumed): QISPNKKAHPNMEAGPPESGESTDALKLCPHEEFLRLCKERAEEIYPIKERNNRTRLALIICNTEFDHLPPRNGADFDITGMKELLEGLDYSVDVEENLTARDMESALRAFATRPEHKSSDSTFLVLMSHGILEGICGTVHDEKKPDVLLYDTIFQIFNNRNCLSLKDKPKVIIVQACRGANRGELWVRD
# T3 sequence (P49662 290-377 limits assumed): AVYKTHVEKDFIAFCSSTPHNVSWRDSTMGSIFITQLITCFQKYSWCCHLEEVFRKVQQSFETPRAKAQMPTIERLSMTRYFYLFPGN
# Protocol: as §1, §2, §3, §4
# [4] = molecular target: T4, Caspase-5 (Homo sapiens, UniProt P51878); assay: Caspase-5 inhibitor screening assay (BioVision kit, WEHD-AFC); details: read-out: IC50 Casp5
# T4 construct: mixing the compounds with the respective active caspases; purchased BioVision K155-100
# T4 sequence (P51878 137-327 limits assumed): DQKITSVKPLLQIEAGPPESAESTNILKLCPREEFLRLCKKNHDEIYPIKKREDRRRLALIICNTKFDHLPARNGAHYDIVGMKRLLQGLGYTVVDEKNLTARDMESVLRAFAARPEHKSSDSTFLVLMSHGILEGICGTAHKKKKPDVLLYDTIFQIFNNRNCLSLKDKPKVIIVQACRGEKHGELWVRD
# T4 sequence (P51878 347-434 limits assumed): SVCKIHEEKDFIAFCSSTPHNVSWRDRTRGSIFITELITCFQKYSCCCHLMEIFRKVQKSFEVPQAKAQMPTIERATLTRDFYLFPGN
# Protocol: as §1, §2, §3, §4
# [5] = molecular target: T5, Caspase-6 (Homo sapiens, UniProt P55212); assay: Caspase-6 inhibitor screening assay (BioVision kit, VEID-AFC)
# T5 construct: mixing the compounds with the respective active caspases; purchased BioVision K156-100
# T5 sequence (P55212 24-179 limits assumed): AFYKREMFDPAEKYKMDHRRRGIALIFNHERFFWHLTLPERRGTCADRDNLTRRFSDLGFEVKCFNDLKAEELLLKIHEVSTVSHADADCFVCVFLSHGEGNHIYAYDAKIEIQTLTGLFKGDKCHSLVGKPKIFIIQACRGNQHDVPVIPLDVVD
# T5 sequence (P55212 194-293 limits assumed): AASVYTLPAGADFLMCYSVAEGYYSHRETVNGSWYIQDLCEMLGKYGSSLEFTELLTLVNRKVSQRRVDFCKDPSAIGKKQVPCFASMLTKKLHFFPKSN
# Protocol: as §1, §2, §3, §4
# [6] = molecular target: T6, Caspase-8 (Homo sapiens, UniProt Q14790); assay: Caspase-8 inhibitor screening assay (BioVision kit, IETD-AFC); details: read-out: IC50 Casp8
# T6 construct: mixing the compounds with the respective active caspases; purchased BioVision K158-100
# Protocol: as §1, §2, §3, §4
# [7] = molecular target: T7, Caspase-9 (Homo sapiens, UniProt P55211); assay: Caspase-9 inhibitor screening assay (BioVision kit, LEHD-AFC); details: read-out: IC50 Casp9
# T7 construct: purchased BioVision K159-100
# T7 sequence (P55211 1-315 limits assumed): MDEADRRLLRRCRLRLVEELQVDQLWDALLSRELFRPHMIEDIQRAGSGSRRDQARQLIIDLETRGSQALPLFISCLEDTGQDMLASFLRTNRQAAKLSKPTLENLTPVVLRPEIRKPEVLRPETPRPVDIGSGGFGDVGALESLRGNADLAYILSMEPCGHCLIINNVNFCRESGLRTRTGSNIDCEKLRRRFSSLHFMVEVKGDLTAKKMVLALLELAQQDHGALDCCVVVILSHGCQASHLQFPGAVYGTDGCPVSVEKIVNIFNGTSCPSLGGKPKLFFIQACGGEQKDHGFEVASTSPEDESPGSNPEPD
# T7 sequence (P55211 331-416 limits assumed): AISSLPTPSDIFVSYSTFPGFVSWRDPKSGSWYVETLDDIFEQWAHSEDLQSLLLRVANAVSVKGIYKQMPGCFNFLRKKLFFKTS
# Protocol: as §1, §2, §3, §4
# [8] = molecular target: T8, Caspase-10 (Homo sapiens, UniProt Q92851); assay: Caspase-10 inhibitor screening assay (BioVision kit, AEVD-AFC); details: read-out: IC50 Casp10
# T8 construct: mixing the compounds with the respective active caspases; purchased BioVision K160-100
# T8 sequence (Q92851 220-415 limits assumed): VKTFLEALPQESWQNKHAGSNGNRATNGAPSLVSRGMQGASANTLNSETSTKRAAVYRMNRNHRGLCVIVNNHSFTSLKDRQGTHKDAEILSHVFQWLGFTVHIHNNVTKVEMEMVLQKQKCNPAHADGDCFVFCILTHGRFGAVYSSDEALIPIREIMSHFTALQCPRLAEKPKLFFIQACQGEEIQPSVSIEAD
# T8 sequence (Q92851 416-521 limits assumed): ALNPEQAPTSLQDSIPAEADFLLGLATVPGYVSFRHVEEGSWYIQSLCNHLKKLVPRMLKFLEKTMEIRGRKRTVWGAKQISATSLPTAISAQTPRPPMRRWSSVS
# Protocol: as §1, §2, §3, §4
# [9] = molecular target: T9, Caspase-7 (Homo sapiens, UniProt P55210); assay: Caspase-7 inhibitor screening assay (BioVision kit, DEVD-AFC); details: read-out: IC50 Casp7
# T9 construct: mixing the compounds with the respective active caspases; purchased BioVision K157-100
# T9 sequence (P55210 24-198 limits assumed): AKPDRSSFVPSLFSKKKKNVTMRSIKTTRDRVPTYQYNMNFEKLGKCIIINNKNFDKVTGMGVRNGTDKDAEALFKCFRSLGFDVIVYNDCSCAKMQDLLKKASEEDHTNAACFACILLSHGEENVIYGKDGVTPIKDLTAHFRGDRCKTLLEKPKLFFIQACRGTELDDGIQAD
# T9 sequence (P55210 207-303 limits assumed): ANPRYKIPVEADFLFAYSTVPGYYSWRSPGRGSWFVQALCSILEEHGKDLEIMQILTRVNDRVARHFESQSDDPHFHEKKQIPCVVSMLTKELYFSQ
# Protocol: as §1, §2, §3, §4
# T6 sequence (Q14790 217-374 limits assumed): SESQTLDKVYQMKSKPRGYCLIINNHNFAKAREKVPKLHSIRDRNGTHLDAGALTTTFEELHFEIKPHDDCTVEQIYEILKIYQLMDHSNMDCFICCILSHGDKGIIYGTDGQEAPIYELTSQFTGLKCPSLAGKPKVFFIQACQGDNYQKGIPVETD
# T6 sequence (Q14790 385-479 limits assumed): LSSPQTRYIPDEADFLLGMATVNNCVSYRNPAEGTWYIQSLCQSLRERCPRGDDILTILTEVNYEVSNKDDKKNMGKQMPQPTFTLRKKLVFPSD
pIC50 [1],pIC50 [2],pIC50 [3],pIC50 [4],pIC50 ([5]; read-out: inhibition (IC50) against Caspase-6),pIC50 [6],pIC50 [7],pIC50 [8],pIC50 ([5]; read-out: IC50 Casp6),pIC50 [9],Structure (SMILES)
5.41,5.87,5.74,5.38,6.64,6.28,5.19,6.72,–,–,"CCC(C)[C@H](NC(=O)[C@H](CCC(=O)O)NC(=O)[C@@H](NC(=O)OCc1ccccc1)C(C)C)C(=O)N[C@H](/C=C(\Cl)S(C)(=O)=O)CC(=O)O (stereo partly drawn) [Compound 123, Z-Val-Glu-Ile-Asp-achlorovinyl methyl vinyl sulfone]"
5.10,5.90,< 4.00,4.80,–,–,–,7.30,< 4.00,6.82,"CCOC(=O)/C(Cl)=C/[C@H](CC(=O)O)NC(=O)[C@H]1CCCN1C(=O)[C@H](NC(=O)[C@H](CC(=O)O)NC(=O)OCc1ccccc1)C(C)(C)C [Compound 57, Z-Asp-t-Leu-Pro-Asp αchlorovinyl Ethyl Vinyl Ester]"
6.96,< 4.00,7.15,6.05,–,5.85,–,–,< 4.00,< 4.00,"CCOC(=O)/C(Cl)=C/[C@H](CC(=O)O)NC(=O)[C@H]1CCCN1C(=O)[C@@H](NC(=O)c1ccc(N)c(Cl)c1)C(C)(C)C [Compound 117, 4-amino-3-chlorobenzene carbonyl-t-Leu-Pro-Asp αchlorovinyl Ethyl Vinyl Ester]"
